Measurements taken from patent publication US8012975B2, “Antitumoral analogs of ET-743” (Pharma Mar, S.A., priority 2000, dated 2011).

Assays:
[1] = test system: A-549; assay: Cytotoxic activity IC50, A-549; conditions: Homo sapiens, A549, read-out: CYTOTOXIC ACTIVITIY IC50 (μM) A-549, A-549
[2] = test system: HT-29; assay: Cytotoxic activity IC50, HT-29; conditions: Homo sapiens, HT-29, read-out: CYTOTOXIC ACTIVITIY IC50 (μM) HT-29, HT-29
[3] = test system: MEL-28; assay: Cytotoxic activity IC50, MEL-28; conditions: Homo sapiens, SK-MEL-28, read-out: CYTOTOXIC ACTIVITIY IC50 (μM) MEL-28, MEL-28
[4] = test system: DU-145; assay: Cytotoxic activity IC50, DU-145; conditions: Homo sapiens, DU-145, read-out: CYTOTOXIC ACTIVITIY IC50 (μM) DU-145, DU-145
[5] = test system: P-388; assay: Cytotoxic activity IC50, P-388; conditions: Mus musculus, P388, read-out: CYTOTOXIC ACTIVITIY IC50 (μM) P-388

Compound	IC50 [1] [µM]	IC50 [2] [µM]	IC50 [3] [µM]	IC50 [4] [µM]	IC50 [5] [µM]
CCCCCC(=O)Oc1c(OC)c(C)cc2c1[C@@H]1C3Cc4c(OC(C)=O)c(C)c5c(c4[C@H](CNC(=O)[C@H](C)NC(=O)C(F)(F)F)N3[C@@H](C#N)[C@H](C2)N1C)OCO5 (some centres unmarked)	0.012	0.012	–	–	–
C=CCOC(=O)Oc1c(C)c2c(c3c1CC1[C@H]4c5c(cc(C)c(OC)c5OCOC)C[C@@H]([C@H](O)N1[C@H]3CNC(=O)CCc1ccccc1)N4C)OCO2 (some centres unmarked)	0.1	0.1	0.1	0.1	0.1
COCOc1c(OC)c(C)cc2c1[C@@H]1C3Cc4c(O)c(C)c5c(c4[C@H](COC(=O)CCc4ccccc4)N3[C@@H](C#N)[C@H](C2)N1C)OCO5 (some centres unmarked)	0.1	0.1	0.1	0.1	0.1
COc1c(C)cc2c(c1O)[C@@H]1C3Cc4c(OC(C)=O)c(C)c5c(c4[C@H](CNC(=O)c4cccnc4Cl)N3[C@@H](O)[C@H](C2)N1C)OCO5 (some centres unmarked)	0.00015	–	–	–	–
COCOc1c(OC)c(C)cc2c1[C@@H]1C3Cc4c(O)c(C)c5c(c4[C@H](COC(=O)/C=C/c4ccccc4)N3[C@@H](C#N)[C@H](C2)N1C)OCO5 (some centres unmarked)	0.1	0.1	0.1	0.1	0.1
CCCC(=O)Oc1c(OC)c(C)cc2c1[C@@H]1C3Cc4c(OC(C)=O)c(C)c5c(c4[C@H](CNC(=O)CCc4ccccc4)N3[C@@H](C#N)[C@H](C2)N1C)OCO5 (some centres unmarked)	0.0014	0.0014	–	–	–
CCCCC(=O)NC[C@H]1c2c(c(OC(C)=O)c(C)c3c2OCO3)CC2[C@H]3c4c(cc(C)c(OC)c4O)C[C@@H]([C@H](C#N)N21)N3C (some centres unmarked)	0.007	0.007	0.007	0.007	0.007
C=CCNC[C@H]1c2c(c(OC(C)=O)c(C)c3c2OCO3)CC2[C@H]3c4c(cc(C)c(OC)c4O)C[C@@H]([C@H](C#N)N21)N3C (some centres unmarked)	0.0018	0.0018	–	–	–
C=CCOC1C(C)=C2OCOC2=C2C1CC1[C@H]3c4c(cc(C)c(OC)c4OCOC)C[C@@H]([C@H](C#N)N1[C@H]2COC(=O)/C(=C/SCC1c2ccccc2-c2ccccc21)OCOC)N3C (some centres unmarked)	0.056	0.056	–	–	–
COc1c(C)cc2c(c1O)[C@@H]1C3Cc4c(OC(C)=O)c(C)c5c(c4[C@H](CNC(=O)[C@H](Cc4c[nH]c6ccccc46)NC(=O)OC(C)(C)C)N3[C@@H](C#N)[C@H](C2)N1C)OCO5 (some centres unmarked)	0.00012	0.00012	–	–	–
COc1c(C)cc2c(c1O)[C@@H]1C3Cc4c(OC(=O)CCCl)c(C)c5c(c4[C@H](CNC(=O)CCc4ccccc4)N3[C@@H](C#N)[C@H](C2)N1C)OCO5 (some centres unmarked)	0.01	0.01	0.01	0.01	0.01
C=CCOc1c(C)c2c(c3c1CC1[C@H]4c5c(cc(C)c(OC)c5OCOC)C[C@@H]([C@H](C#N)N1[C@H]3CO)N4C)OCO2 (some centres unmarked)	0.2	0.2	0.2	0.2	0.2
C/C=C/C(=O)N[C@@H](C)C(=O)NC[C@H]1c2c(c(OC(C)=O)c(C)c3c2OCO3)CC2[C@H]3c4c(cc(C)c(OC)c4O)C[C@@H]([C@H](C#N)N21)N3C (some centres unmarked)	0.007	0.001	0.001	0.007	0.001
C=CCOC(=O)Oc1c(C)c2c(c3c1CC1[C@H]4c5c(cc(C)c(OC)c5O)C[C@@H]([C@H](C#N)N1[C@H]3CN)N4C)OCO2 (some centres unmarked)	0.06	0.06	0.06	0.06	0.06
COC1=C(C)C(=O)C2=C(C1=O)[C@H](CNC(C)=O)N1C(C2)[C@H]2c3c(cc(C)c(OC)c3O)C[C@@H]([C@@H]1C#N)N2C (some centres unmarked)	0.005	0.005	0.005	–	0.005
COc1c(C)cc2c(c1OC(=O)CC1CCCCC1)[C@@H]1C3Cc4c(OC(C)=O)c(C)c5c(c4[C@H](CNC(=O)CC4CCCCC4)N3[C@@H](C#N)[C@H](C2)N1C)OCO5 (some centres unmarked)	0.013	–	–	–	–
COc1c(C)cc2c(c1O)[C@@H]1C3Cc4c(OC(C)=O)c(C)c5c(c4[C@H](COC(=O)/C=C/c4cccc(C(F)(F)F)c4)N3[C@@H](C#N)[C@H](C2)N1C)OCO5 (some centres unmarked)	0.001	0.001	0.001	0.001	0.001
COC1=C(C)C(=O)C2=C(C1=O)[C@H](CNC(=O)[C@H](C)NC(C)=O)N1C(C2)[C@H]2c3c(cc(C)c(OC)c3O)C[C@@H]([C@@H]1C#N)N2C (some centres unmarked)	0.08	0.08	0.08	0.08	0.08
COc1c(C)cc2c(c1O)[C@@H]1C3Cc4c(OC(C)=O)c(C)c5c(c4[C@H](CNC(=O)[C@H](Cc4c[nH]c6ccccc46)NC(=O)OC(C)(C)C)N3[C@@H](O)[C@H](C2)N1C)OCO5 (some centres unmarked)	0.012	–	–	–	–
C=CCOC(=O)Oc1c(C)c2c(c3c1CC1[C@H]4c5c(cc(C)c(OC)c5OCOC)C[C@@H]([C@H](C#N)N1[C@H]3CNC(=O)[C@H](C)NC(=O)OC(C)(C)C)N4C)OCO2 (some centres unmarked)	0.06	0.06	0.06	0.06	0.06

Compound	IC50 [1] [µM]	IC50 [2] [µM]	IC50 [3] [µM]	IC50 [4] [µM]	IC50 [5] [µM]
COc1c(C)cc2c(c1O)[C@@H]1C3Cc4c(OC(C)=O)c(C)c5c(c4[C@H](CNC(=O)[C@H](C)NC(=O)CCc4ccccc4)N3[C@@H](C#N)[C@H](C2)N1C)OCO5 (some centres unmarked)	0.001	0.0006	0.001	0.0006	0.0006
COc1c(C)cc2c(c1O)[C@@H]1C3Cc4c(OC(C)=O)c(C)c5c(c4[C@H](CNC(=O)CC4CCCCC4)N3[C@@H](C#N)[C@H](C2)N1C)OCO5 (some centres unmarked)	0.0015	–	–	–	–
CCCC(=O)Oc1c(OC)c(C)cc2c1[C@@H]1C3Cc4c(OC(C)=O)c(C)c5c(c4[C@H](CNC(=O)[C@H](C)NC(=O)C(F)(F)F)N3[C@@H](C#N)[C@H](C2)N1C)OCO5 (some centres unmarked)	0.13	0.13	–	–	–
COc1c(C)cc2c(c1OC(C)=O)[C@@H]1C3Cc4c(OC(C)=O)c(C)c5c(c4[C@H](CNC(=O)[C@@H](C)N(C(C)=O)C(=O)C(F)(F)F)N3[C@@H](C#N)[C@H](C2)N1C)OCO5 (some centres unmarked)	0.12	0.12	–	–	–
COCOc1c(OC)c(C)cc2c1[C@@H]1C3CC4C(=O)C(C)=C5OCOC5=C4[C@H](COC(=O)/C(CSCC4c5ccccc5-c5ccccc54)=N/OC)N3[C@@H](C#N)[C@H](C2)N1C (some centres unmarked)	> 1	> 1	–	–	–
C=CCOc1c(C)c2c(c3c1CC1[C@H]4c5c(cc(C)c(OC)c5O)C[C@@H]([C@H](C#N)N1[C@H]3COC(=O)/C=C/c1ccccc1)N4C)OCO2 (some centres unmarked)	0.0015	0.0015	–	–	–
COCOc1c(OC)c(C)cc2c1[C@@H]1C3Cc4c(OC(C)=O)c(C)c5c(c4[C@H](COC(=O)/C=C/c4ccccc4)N3[C@@H](C#N)[C@H](C2)N1C)OCO5 (some centres unmarked)	–	–	–	–	0.01
COc1c(C)cc2c(c1O)[C@@H]1C3[C@@H]4SCC(=O)C(=O)OC[C@@H](c5c6c(c(C)c(OC(C)=O)c54)OCO6)N3[C@@H](C#N)[C@H](C2)N1C (some centres unmarked)	0.1	0.1	0.1	–	0.1
COc1c(C)cc2c(c1O)[C@@H]1C3Cc4c(OC(C)=O)c(C)c5c(c4[C@H](CNC(=O)[C@@H]4CCCN4C(=O)OC(C)(C)C)N3[C@@H](C#N)[C@H](C2)N1C)OCO5 (some centres unmarked)	0.014	0.014	–	–	–
COc1c(C)cc2c(c1O)[C@@H]1C3Cc4c(OC(C)=O)c(C)c5c(c4[C@H](CNC(=O)CCC4CCCCC4)N3[C@@H](C#N)[C@H](C2)N1C)OCO5 (some centres unmarked)	0.0015	–	–	–	–
COc1c(C)cc2c(c1O)[C@@H]1C3Cc4c(OC(C)=O)c(C)c5c(c4[C@H](CNC(=O)[C@@H](NC(=O)OC(C)(C)C)C(C)C)N3[C@@H](C#N)[C@H](C2)N1C)OCO5 (some centres unmarked)	0.007	0.007	–	–	–
CCCC(=O)Oc1c(OC)c(C)cc2c1[C@@H]1C3Cc4c(OC(C)=O)c(C)c5c(c4[C@H](CNC(=O)C(C)NC(=O)CCc4ccccc4)N3[C@@H](C#N)[C@H](C2)N1C)OCO5 (some centres unmarked)	0.012	0.012	–	–	–
COc1c(C)cc2c(c1O)[C@@H]1C3Cc4c(OC(C)=O)c(C)c5c(c4[C@H](CNC(=O)c4cccnc4Cl)N3[C@@H](C#N)[C@H](C2)N1C)OCO5 (some centres unmarked)	0.00015	–	–	–	–
CCCCCC(=O)Oc1c(OC)c(C)cc2c1[C@@H]1C3Cc4c(OC(C)=O)c(C)c5c(c4[C@H](CNC(=O)CCc4ccccc4)N3[C@@H](C#N)[C@H](C2)N1C)OCO5 (some centres unmarked)	0.013	0.013	–	–	–
CCCCCC(=O)Oc1c(OC)c(C)cc2c1[C@@H]1C3Cc4c(OC(C)=O)c(C)c5c(c4[C@H](CNC(=O)C(C)NC(=O)CCc4ccccc4)N3[C@@H](C#N)[C@H](C2)N1C)OCO5 (some centres unmarked)	0.06	0.06	–	–	–
COc1c(C)cc2c(c1OC(=O)CCC1CCCCC1)[C@@H]1C3Cc4c(OC(C)=O)c(C)c5c(c4[C@H](CNC(=O)CCC4CCCCC4)N3[C@@H](C#N)[C@H](C2)N1C)OCO5 (some centres unmarked)	0.12	–	–	–	–
COc1c(C)cc2c(c1O)[C@@H]1C3Cc4c(OC(C)=O)c(C)c5c(c4[C@H](CNC(=O)[C@H](Cc4ccccc4)NC(=O)OC(C)(C)C)N3[C@@H](C#N)[C@H](C2)N1C)OCO5 (some centres unmarked)	0.0013	0.0013	–	–	–
CCCC(=O)Oc1c(OC)c(C)cc2c1[C@@H]1C3Cc4c(OC(C)=O)c(C)c5c(c4[C@H](CN(C(=O)CCC)C(=O)[C@H](C)N(C(=O)CCC)C(=O)C(F)(F)F)N3[C@@H](C#N)[C@H](C2)N1C)OCO5 (some centres unmarked)	0.11	0.11	–	–	–
COc1c(C)cc2c(c1OC(C)=O)[C@@H]1C3Cc4c(OC(C)=O)c(C)c5c(c4[C@H](CNC(=O)[C@@H](C)NC(=O)C(F)(F)F)N3[C@@H](C#N)[C@H](C2)N1C)OCO5 (some centres unmarked)	0.013	0.013	–	–	–
